How the values were obtained:
Plasmepsin II = Plasmepsin II (Plasmodium falciparum, UniProt P46925); experiment: Inhibition of Plasmodium falciparum plasmepsin-2 by FRET assay
Cathepsin D = Cathepsin D (Homo sapiens, UniProt P07339); experiment: Inhibition of human cathepsin D by FRET assay
Chain of Cathepsin D (P07339 65-162 limits assumed): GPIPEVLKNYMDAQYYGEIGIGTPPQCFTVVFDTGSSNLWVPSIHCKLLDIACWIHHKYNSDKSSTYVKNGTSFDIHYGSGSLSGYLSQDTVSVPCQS
Chain of Cathepsin D (P07339 169-412 limits assumed): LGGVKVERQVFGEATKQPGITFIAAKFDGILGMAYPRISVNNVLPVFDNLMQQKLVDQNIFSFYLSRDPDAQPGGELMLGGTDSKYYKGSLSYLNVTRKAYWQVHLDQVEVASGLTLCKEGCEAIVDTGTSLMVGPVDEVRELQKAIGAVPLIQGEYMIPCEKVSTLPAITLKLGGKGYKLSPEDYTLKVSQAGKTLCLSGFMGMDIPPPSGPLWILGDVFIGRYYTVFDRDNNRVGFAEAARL

Chain of Plasmepsin II (P46925 whole entry): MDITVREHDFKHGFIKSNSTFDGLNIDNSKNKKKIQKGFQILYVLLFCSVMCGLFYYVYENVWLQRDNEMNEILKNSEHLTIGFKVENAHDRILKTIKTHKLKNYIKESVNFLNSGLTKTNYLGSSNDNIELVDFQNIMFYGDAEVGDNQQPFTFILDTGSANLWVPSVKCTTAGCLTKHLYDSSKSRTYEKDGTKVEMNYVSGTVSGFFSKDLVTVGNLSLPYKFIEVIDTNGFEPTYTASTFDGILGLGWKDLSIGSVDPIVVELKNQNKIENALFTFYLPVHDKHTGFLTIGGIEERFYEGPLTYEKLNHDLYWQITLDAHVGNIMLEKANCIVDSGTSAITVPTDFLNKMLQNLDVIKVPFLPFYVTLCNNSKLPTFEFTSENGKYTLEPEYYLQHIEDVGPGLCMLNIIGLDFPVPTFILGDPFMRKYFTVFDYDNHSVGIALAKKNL

Row | Compound | IC50 (Plasmepsin II) | IC50 (Cathepsin D)
1 | CC(C)CC(=O)N[C@H](C(=O)N[C@H](C(=O)N[C@@H](CC(C)C)[C@@H](O)CC(=O)N[C@@H](C)C(=O)N[C@@H](CC(C)C)[C@@H](O)CC(=O)O)C(C)C)C(C)C [PEPSTATIN] | 0.68 nM | –
2 | Cc1ccc2c(NNC(=O)c3ccccc3O)c3ccccc3nc2c1C | 0.13 nM | 0.5 nM
3 | Cc1cccc(C(=O)NNc2c3ccccc3nc3c(C)c(C)ccc23)c1 | 4 nM | 9 nM

From ChEMBL document CHEMBL1145617, “Identification of acridinyl hydrazides as potent aspartic protease inhibitors” (Bioorg Med Chem Lett, 2008)
